# From patent US9533965B2, “2-arylbenzofuran-7-formamide compounds, preparation method and use thereof” (SHANGHAI INSTITUTE OF MATERIA MEDICA, CHINESE ACADEMY OF …, priority 2012, dated 2017)
# Values joined by “and” are separate entries in the source; they are usually repeats but may differ in a detail not shown here. Identical values can stand only once. Like-named read-outs stand apart in the source and are kept apart here.
# Tests used:
# PARP1 = PARP1 (Homo sapiens, UniProt P09874); experiment: PARP1 enzymatic inhibition at molecular levels (ELISA); details: ELISA IC50, PARP1 enzyme, molecular level
# wild type cell line V79 = experiment: In vitro cell proliferation inhibition (MTT), V79 cells; format: cell-based, Chinese hamster; details: Cricetulus griseus; MTT, 72 h, wild type V79; read-out: V79 cell IC50
# [1] = Preliminary pharmacokinetic experiment in rats by gavage; format: in vivo, SD rats; details: 10 mg/kg by gavage
# Experimental: Healthy SD rats (supplied by Shanghai Sippr-BK Lab. Animal Co. Ltd, the Production License Number for the experimental animals: SCXK (hu), 200-220 g of weight, male) were divided into groups randomly and administrated by gavage, respectively. The compound was dissolved in normal saline.
# The rats fasted for 12 h and could drink water ad libitum before experiment. 2 h after dosing, the rats were provided with food all together.
# The time point for collecting blood samples and the sample processing are listed as follows.
# Intragastric administration: 0.25, 0.5, 1.0, 2.0, 3.0, 5.0, 7.0, 9.0 and 24 h after administration: 0.3 mL venous blood was taken from retrobulbar venous plexus of the rat and loaded into heparinization tubes. After being centrifuged at 11000 rpm for 5 min, the plasma was separated and frozen at −20° C. in a refrigerator.
# TNKS2 = target: T1, TNKS2 (Homo sapiens, UniProt Q9H2K2); experiment: Enzymatic inhibition on the PARP family members (ELISA), TNKS2; format: biochemical; details: PARP family panel, 30° C.
# T1 sequence (Q9H2K2 1-1166): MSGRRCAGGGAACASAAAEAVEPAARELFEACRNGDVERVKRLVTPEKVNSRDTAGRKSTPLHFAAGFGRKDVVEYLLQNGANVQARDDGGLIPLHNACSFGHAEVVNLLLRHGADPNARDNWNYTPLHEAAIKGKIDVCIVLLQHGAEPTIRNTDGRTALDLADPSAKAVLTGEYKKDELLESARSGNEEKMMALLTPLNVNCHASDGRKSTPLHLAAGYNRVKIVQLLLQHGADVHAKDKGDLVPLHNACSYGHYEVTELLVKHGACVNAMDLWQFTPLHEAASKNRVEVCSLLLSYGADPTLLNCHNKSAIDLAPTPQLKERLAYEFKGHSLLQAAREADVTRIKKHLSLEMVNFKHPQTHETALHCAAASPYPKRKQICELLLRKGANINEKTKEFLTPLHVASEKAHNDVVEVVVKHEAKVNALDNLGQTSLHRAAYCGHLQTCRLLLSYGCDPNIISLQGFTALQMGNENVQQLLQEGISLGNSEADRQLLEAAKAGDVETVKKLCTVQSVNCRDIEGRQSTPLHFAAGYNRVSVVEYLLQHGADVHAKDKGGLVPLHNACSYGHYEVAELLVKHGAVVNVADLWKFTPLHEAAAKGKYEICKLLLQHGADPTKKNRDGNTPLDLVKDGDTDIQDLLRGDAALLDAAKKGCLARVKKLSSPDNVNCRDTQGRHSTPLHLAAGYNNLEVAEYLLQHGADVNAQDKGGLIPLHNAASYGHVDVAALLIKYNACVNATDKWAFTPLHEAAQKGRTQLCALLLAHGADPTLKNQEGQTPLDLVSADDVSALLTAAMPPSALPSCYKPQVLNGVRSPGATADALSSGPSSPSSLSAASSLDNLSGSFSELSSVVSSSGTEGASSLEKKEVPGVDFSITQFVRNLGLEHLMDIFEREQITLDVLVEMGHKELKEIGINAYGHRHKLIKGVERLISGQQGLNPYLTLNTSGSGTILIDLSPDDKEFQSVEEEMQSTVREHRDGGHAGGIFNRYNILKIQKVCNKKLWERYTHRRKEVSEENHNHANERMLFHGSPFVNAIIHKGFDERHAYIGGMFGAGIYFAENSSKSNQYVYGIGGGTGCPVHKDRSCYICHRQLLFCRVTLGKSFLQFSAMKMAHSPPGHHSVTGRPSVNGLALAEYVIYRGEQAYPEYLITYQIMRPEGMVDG
# Chain of PARP1 (P09874 whole entry): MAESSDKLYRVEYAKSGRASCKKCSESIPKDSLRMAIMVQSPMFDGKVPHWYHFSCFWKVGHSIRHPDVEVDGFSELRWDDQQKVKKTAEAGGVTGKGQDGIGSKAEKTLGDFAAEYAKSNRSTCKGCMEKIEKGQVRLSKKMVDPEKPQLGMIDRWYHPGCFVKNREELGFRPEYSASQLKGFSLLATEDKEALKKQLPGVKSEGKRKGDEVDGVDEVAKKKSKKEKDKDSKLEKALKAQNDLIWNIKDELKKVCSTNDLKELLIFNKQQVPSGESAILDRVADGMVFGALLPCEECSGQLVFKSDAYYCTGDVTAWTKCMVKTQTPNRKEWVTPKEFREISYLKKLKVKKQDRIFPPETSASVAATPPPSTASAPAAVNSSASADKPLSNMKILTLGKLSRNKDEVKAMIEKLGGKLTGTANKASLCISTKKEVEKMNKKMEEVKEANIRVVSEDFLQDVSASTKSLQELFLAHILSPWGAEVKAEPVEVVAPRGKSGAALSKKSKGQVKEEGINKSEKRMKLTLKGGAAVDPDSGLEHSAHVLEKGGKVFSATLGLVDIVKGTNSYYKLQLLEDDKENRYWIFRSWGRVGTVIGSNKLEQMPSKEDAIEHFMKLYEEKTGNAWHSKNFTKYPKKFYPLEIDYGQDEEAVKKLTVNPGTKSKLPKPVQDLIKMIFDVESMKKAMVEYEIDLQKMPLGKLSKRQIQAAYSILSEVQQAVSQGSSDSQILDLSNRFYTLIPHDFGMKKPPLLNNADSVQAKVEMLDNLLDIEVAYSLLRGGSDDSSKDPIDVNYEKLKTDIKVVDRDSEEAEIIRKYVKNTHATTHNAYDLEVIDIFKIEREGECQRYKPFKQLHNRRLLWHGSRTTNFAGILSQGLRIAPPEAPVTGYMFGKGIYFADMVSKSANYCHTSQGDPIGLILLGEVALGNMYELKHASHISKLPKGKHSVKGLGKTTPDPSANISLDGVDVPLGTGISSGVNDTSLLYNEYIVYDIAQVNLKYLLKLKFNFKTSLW
smiles,measurement,setting,value
"CNCc1ccc(-c2cc3cc(F)cc(C(N)=O)c3o2)cc1 [compound 5b, 5-fluoro-2-{4-[(methylamino)methyl]phenyl}benzofuran-7-carboxamide]",IC50,PARP1,44.8 ± 12.5 nM
same,IC50,wild type cell line V79,> 10000 nM
same,eliminate rate in vivo,[1],moderate
same,AUC0-t,[1]; 10 mg/kg,394 ng·h/mL and 587 ng·h/mL and 352 ng·h/mL and 474 ng·h/mL
same,AUC0-∞,[1]; 10 mg/kg,595 ng·h/mL and 407 ng·h/mL and 478 ng·h/mL
same,MRT,[1]; 10 mg/kg,3.82 h and 3.34 h and 5.57 h and 3.04 h
same,AUC0-∞,"[1]; 10 mg/kg, mean",471 ng·h/mL
same,bioavailability,"[1]; male, Sprague-Dawley (SD), rat, plasma, po, read-out: F (absolute bioavailability)",58.9%
same,AUC(0-inf),"[1]; male, Sprague-Dawley (SD), rat, plasma, po, 10 mg/kg",404 ng·h/mL
same,AUC0-t,"[1]; male, Sprague-Dawley (SD), rat, plasma, po, 10 mg/kg, read-out: AUC0-t",452 ± 103 ng·h/mL
same,MRT,"[1]; male, Sprague-Dawley (SD), rat, plasma, po, 10 mg/kg, read-out: MRT",3.94 ± 1.13 h
same,IC50,TNKS2,1300 nM
